The record followed here is patent US10736883B2, “Triazole furan compounds as agonists of the APJ receptor” (AMGEN INC., priority 2016, dated 2020).

The target of this experiment is APJ receptor (Homo sapiens (Human), UniProt P35414). Description: [35S]GTPγS binding assay on membranes from CHO cells stably expressing human APJ receptor. The experiment is classed as biochemical. Conditions: membranes of CHO cells stably expressing human APJ receptor, means of several independent experiments, read-out: Activity hAPJ SPA EC50 IP. As to the method: The human APJ receptor was cloned by polymerase chain reaction and the gene encoding the receptor was subcloned in pFLAG-CMV™-3 expression vector (Sigma, Saint Louis, Mo. USA) in-house at Amgen. A GTPγS binding assay was performed on membranes prepared from CHO cells stably expressing human APJ receptor. The optimum experimental conditions for the concentrations of GDP, MgCl2, and NaCl in the assay buffer were initially determined. The assay was performed in assay buffer [20 mM HEPES, pH 7.5, 5 mM MgCl2, and 0.1% (w/v) BSA with 200 mM NaCl, 3 μM GDP] and membranes expressing human APJ receptor/well along with WGA PS beads. The reaction was initiated by addition of 0.2 nM [^35S]GTPγS (Perkin Elmer Life and Analytical Sciences, Waltham USA) in the absence or presence of various ligands and incubated at RT for 90 min. Nonspecific binding was determined in the presence of 100 μM GTPγS and was always less than 0.2% of total binding. All the results presented are means of several independent experiments and analyzed by non-linear regression methods using commercially available program Prism (GraphPad, San Diego, Calif.) to obtain EC50 detailed in Table 26.
In general terms: Binding of GTPγS marks nucleotide exchange on a G protein.

APJ receptor, sequence (P35414 whole entry): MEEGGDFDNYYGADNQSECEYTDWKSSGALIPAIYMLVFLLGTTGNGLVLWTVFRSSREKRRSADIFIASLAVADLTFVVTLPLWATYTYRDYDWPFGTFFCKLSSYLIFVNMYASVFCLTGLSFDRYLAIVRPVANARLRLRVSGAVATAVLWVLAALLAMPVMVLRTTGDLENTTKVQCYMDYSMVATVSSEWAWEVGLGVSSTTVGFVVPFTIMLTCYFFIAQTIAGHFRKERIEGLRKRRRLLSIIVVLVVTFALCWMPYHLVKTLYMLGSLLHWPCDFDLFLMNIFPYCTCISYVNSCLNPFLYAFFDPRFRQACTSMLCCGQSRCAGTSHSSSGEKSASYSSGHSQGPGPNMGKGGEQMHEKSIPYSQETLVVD

By EC50 is commonly meant the concentration giving half of the maximal effect. As for `COc1cccc(OC)c1-n1c(NS(=O)(=O)[C@H](C)Cc2ccc(Br)cn2)nnc1-c1ccco1` (single isomer, unassigned) [Example 23.0, (2R)-1-(5-bromo-2-pyridinyl)-N-(4-(2,6-dimethoxyphenyl)-5-(2-furanyl)-4H-1,2,4-triazol-3-yl)-2-propanesulfonamide or (2S)-1-(5-bromo-2-pyridinyl)-N-(4-(2,6-dimethoxyphenyl)-5-(2-furanyl)-4H-1,2,4-triazol-3-yl)-2-propanesulfonamide], the EC50 is 0.36 nM.
To `COc1cccc(OC)c1-n1c(NS(=O)(=O)[C@@H](C)Cc2ncc(Cl)cc2C(N)=O)nnc1-c1ccco1` (single isomer, unassigned) [Example 17.0, 5-chloro-2-((2S)-2-((4-(2,6-dimethoxyphenyl)-5-(2-furanyl)-4H-1,2,4-triazol-3-yl)sulfamoyl)propyl)-3-pyridinecarboxamide or 5-chloro-2-((2R)-2-((4-(2,6-dimethoxyphenyl)-5-(2-furanyl)-4H-1,2,4-triazol-3-yl)sulfamoyl)propyl)-3-pyridinecarboxamide] belongs 0.26 nM; to `COc1cccc(OC)c1-n1c(NS(=O)(=O)[C@@H](C)[C@H](C)c2cnc(C)cn2)nnc1-c1ccc(C)o1` [Example 148.0, (2S,3R)—N-(4-(2,6-Dimethoxyphenyl)-5-(5-methyl-2-furanyl)-4H-1,2,4-triazol-3-yl)-3-(5-methyl-2-pyrazinyl)-2-butanesulfonamide], 0.19 nM.
With `COc1cccc(OC)c1-n1c(NS(=O)(=O)CCc2ncc(Cl)cc2CCN2CCCC2)nnc1-c1ccco1` [Example 232.0, 2-(5-Chloro-3-(2-(1-pyrrolidinyl)ethyl)-2-pyridinyl)-N-(4-(2,6-dimethoxyphenyl)-5-(2-furanyl)-4H-1,2,4-triazol-3-yl)ethanesulfonamide], the EC50 was 0.45 nM.
As to `COc1c(Br)cc(Br)c(OC)c1-n1c(NS(=O)(=O)[C@@H](C)[C@H](C)c2ncc(F)cn2)nnc1-c1ccc(C)o1` [Example 189.0, (2S,3R)—N-(4-(3,5-Dibromo-2,6-dimethoxyphenyl)-5-(5-methyl-2-furanyl)-4H-1,2,4-triazol-3-yl)-3-(5-fluoro-2-pyrimidinyl)-2-butanesulfonamide], the EC50 came out at 110 nM.
Under `COC[C@@H]1CCCC(=O)N1C[C@H](C)S(=O)(=O)Nc1nnc(-c2ccc(C)o2)n1-c1c(OC)cccc1OC` (racemic) [Example 151.0] stands 0.24 nM; under `COc1cccc(OC)c1-n1c(NS(=O)(=O)[C@@H](C)[C@@H](O)c2cc3ccccn3n2)nnc1-c1ccc(C)o1` (single isomer, unassigned) [Example 271.0, (1S,2S)—N-(4-(2,6-Dimethoxyphenyl)-5-(5-methyl-2-furanyl)-4H-1,2,4-triazol-3-yl)-1-hydroxy-1-pyrazolo[1,5-a]pyridin-2-yl-2-propanesulfonamide or (1R,2R)—N-(4-(2,6-dimethoxyphenyl)-5-(5-methyl-2-furanyl)-4H-1,2,4-triazol-3-yl)-1-hydroxy-1-pyrazolo[1,5-a]pyridin-2-yl-2-propanesulfonamide], 0.62 nM.
To `COc1cccc(OC)c1-n1c(NS(=O)(=O)[C@H](C)[C@@H](O)c2ncc(F)cn2)nnc1-c1ccc(C)o1` [Example 211.0, (1S,2R)-N-(4-(2,6-dimethoxyphenyl)-5-(5-methylfuran-2-yl)-4H-1,2,4-triazol-3-yl)-1-(5-fluoropyrimidin-2-yl)-1-hydroxypropane-2-sulfonamide] belongs 4.1 nM; to `CC[C@H](Cc1ncc(F)cn1)S(=O)(=O)Nc1nnc(-c2ccc(C)o2)n1-c1c(OC)cccc1OC` [Example 128.0, (R)-N-(4-(2,6-dimethoxyphenyl)-5-(5-methylfuran-2-yl)-4H-1,2,4-triazol-3-yl)-1-(5-fluoropyrimidin-2-yl)butane-2-sulfonamide and (R)-N-(4-(2,6-dimethoxyphenyl)-5-(5-methylfuran-2-yl)-4H-1,2,4-triazol-3-yl)-1-(5-fluoropyrimidin-2-yl)butane-2-sulfonamide], 1.1 nM; to `COc1cccc(OC)c1-n1c(NS(=O)(=O)C[C@@H](C)c2ncc(F)cn2)nnc1-c1ccco1` (mixture of isomers) [Example 129.0, (S)-N-(4-(2,6-dimethoxyphenyl)-5-(furan-2-yl)-4H-1,2,4-triazol-3-yl)-2-(5-fluoropyrimidin-2-yl)propane-1-sulfonamide and (R)-N-(4-(2,6-dimethoxyphenyl)-5-(furan-2-yl)-4H-1,2,4-triazol-3-yl)-2-(5-fluoropyrimidin-2-yl)propane-1-sulfonamide], 3.3 nM.
With `COc1cccc(OC)c1-n1c(NS(=O)(=O)[C@H](C)[C@H](O)c2cscn2)nnc1-c1ccc(C)o1` (single isomer, unassigned) [Example 309.0, (1S,2S)—N-(4-(2,6-Dimethoxyphenyl)-5-(5-methyl-2-furanyl)-4H-1,2,4-triazol-3-yl)-1-hydroxy-1-(1,3-thiazol-4-yl)-2-propanesulfonamide or (1R,2R)—N-(4-(2,6-dimethoxyphenyl)-5-(5-methyl-2-furanyl)-4H-1,2,4-triazol-3-yl)-1-hydroxy-1-(1,3-thiazol-4-yl)-2-propanesulfonamide], the EC50 stood at 61 nM.
On to `COCCn1c(NS(=O)(=O)[C@@H](C)[C@H](OC)c2ncc(Cl)cn2)nnc1-c1ccc(C)o1` [Example 386.0, (1R,2S)-1-(5-chloropyrimidin-2-yl)-1-methoxy-N-(4-(2-methoxyethyl)-5-(5-methylfuran-2-yl)-4H-1,2,4-triazol-3-yl)propane-2-sulfonamide], for which the EC50 came out at 37 nM.
Take `COc1cccc(OC)c1-n1c(NS(=O)(=O)[C@H](C)Cc2ncc(Cl)cc2C#N)nnc1-c1ccco1` (single isomer, unassigned) [Example 20.0, (2R)-1-(5-chloro-3-cyano-2-pyridinyl)-N-(4-(2,6-dimethoxyphenyl)-5-(2-furanyl)-4H-1,2,4-triazol-3-yl)-2-propanesulfonamide or (2S)-1-(5-chloro-3-cyano-2-pyridinyl)-N-(4-(2,6-dimethoxyphenyl)-5-(2-furanyl)-4H-1,2,4-triazol-3-yl)-2-propanesulfonamide]: the 50% effective concentration (EC50) is 0.3 nM.
In the case of `COc1cccc(OC)c1-n1c(NS(=O)(=O)[C@@H]2CCCN(C(=O)N(C)C)C2)nnc1-c1ccco1` (single isomer, unassigned) [Example 340.0, (S)-3-(N-(4-(2,6-Dimethoxyphenyl)-5-(furan-2-yl)-4H-1,2,4-triazol-3-yl)sulfamoyl)-N,N-dimethylpiperidine-1-carboxamide or (R)-3-(N-(4-(2,6-dimethoxyphenyl)-5-(furan-2-yl)-4H-1,2,4-triazol-3-yl)sulfamoyl)-N,N-dimethylpiperidine-1-carboxamide], the concentration for a half-maximal effect (EC50) is 75 nM.
To `COc1cccc(OC)c1-n1c(NS(=O)(=O)[C@@H](C)C2(O)COC2)nnc1-c1ccc(C)o1` (single isomer, unassigned) [Example 311.0, (1S)—N-(4-(2,6-Dimethoxyphenyl)-5-(5-methyl-2-furanyl)-4H-1,2,4-triazol-3-yl)-1-(3-hydroxy-3-oxetanyl)ethanesulfonamide or (1R)—N-(4-(2,6-dimethoxyphenyl)-5-(5-methyl-2-furanyl)-4H-1,2,4-triazol-3-yl)-1-(3-hydroxy-3-oxetanyl)ethanesulfonamide] belongs 190 nM.
Turning to `COc1cccc(OC)c1-n1c(NS(=O)(=O)[C@@H](C)[C@@H](O)c2ccc(Cl)cc2S(C)(=O)=O)nnc1-c1ccc(C)o1` (single isomer, unassigned) [Example 153.0, (1R,2R)-1-(4-Chloro-2-(methylsulfonyl)phenyl)-N-(4-(2,6-dimethoxyphenyl)-5-(5-methyl-2-furanyl)-4H-1,2,4-triazol-3-yl)-1-hydroxy-2-propanesulfonamide or (1S,2S)-1-(4-chloro-2-(methylsulfonyl)phenyl)-N-(4-(2,6-dimethoxyphenyl)-5-(5-methyl-2-furanyl)-4H-1,2,4-triazol-3-yl)-1-hydroxy-2-propanesulfonamide], the EC50 is 0.26 nM.
As to `COc1cccc(OC)c1-n1c(NS(=O)(=O)[C@H](C)[C@@H](O)c2cnc3ccccn23)nnc1-c1ccc(C)o1` (single isomer, unassigned) [Example 294.0, (1R,2S)—N-(4-(2,6-Dimethoxyphenyl)-5-(5-methyl-2-furanyl)-4H-1,2,4-triazol-3-yl)-1-hydroxy-1-imidazo[1,2-a]pyridin-3-yl-2-propanesulfonamide or (1S,2R)—N-(4-(2,6-dimethoxyphenyl)-5-(5-methyl-2-furanyl)-4H-1,2,4-triazol-3-yl)-1-hydroxy-1-imidazo[1,2-a]pyridin-3-yl-2-propanesulfonamide], the EC50 amounted to 5.8 nM.
`COc1cccc(OC)c1-n1c(NS(=O)(=O)C[C@H](O)c2ccc(Cl)cc2S(C)(=O)=O)nnc1-c1ccc(C)o1` (single isomer, unassigned) [Example 144.0, (2R)-2-(4-Chloro-2-(methylsulfonyl)phenyl)-N-(4-(2,6-dimethoxyphenyl)-5-(5-methyl-2-furanyl)-4H-1,2,4-triazol-3-yl)-2-hydroxyethanesulfonamide or (2S)-2-(4-chloro-2-(methylsulfonyl)phenyl)-N-(4-(2,6-dimethoxyphenyl)-5-(5-methyl-2-furanyl)-4H-1,2,4-triazol-3-yl)-2-hydroxyethanesulfonamide]: the concentration for a half-maximal effect (EC50) worked out at 0.073 nM.
